Assay [1] deals with Vascular endothelial growth factor receptor 2 (Homo sapiens, UniProt P35968). Description: Inhibition of Vascular endothelial growth factor receptor 2 kinase.
Assay [2] has as its target Glycogen synthase kinase-3 beta (Homo sapiens, UniProt P49841). Description: Inhibition of human Glycogen synthase kinase-3 beta.
Assay [3] deals with Cyclin-dependent kinase 2 (Homo sapiens, UniProt P24941). Description: Inhibition of cyclin-dependent kinase 2.
In assay [4] the test system is L6. Kind of assay: Potency of compound in glycogen accumulation in L6 cells. It is filed as functional, cell-based. Conditions: Rattus norvegicus.

Sequence of Glycogen synthase kinase-3 beta (P49841 whole entry): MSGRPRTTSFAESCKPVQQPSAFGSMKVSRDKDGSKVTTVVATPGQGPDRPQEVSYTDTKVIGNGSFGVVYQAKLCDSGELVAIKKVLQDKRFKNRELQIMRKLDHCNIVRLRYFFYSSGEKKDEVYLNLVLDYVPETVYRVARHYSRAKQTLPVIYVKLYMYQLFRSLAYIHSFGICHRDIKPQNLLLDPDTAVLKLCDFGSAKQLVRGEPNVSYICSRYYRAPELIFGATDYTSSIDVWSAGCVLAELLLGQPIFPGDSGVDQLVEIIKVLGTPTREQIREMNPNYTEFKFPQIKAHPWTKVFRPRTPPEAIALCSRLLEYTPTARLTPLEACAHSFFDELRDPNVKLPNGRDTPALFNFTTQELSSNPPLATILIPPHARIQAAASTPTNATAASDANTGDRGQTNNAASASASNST
Sequence of Vascular endothelial growth factor receptor 2 (P35968 whole entry): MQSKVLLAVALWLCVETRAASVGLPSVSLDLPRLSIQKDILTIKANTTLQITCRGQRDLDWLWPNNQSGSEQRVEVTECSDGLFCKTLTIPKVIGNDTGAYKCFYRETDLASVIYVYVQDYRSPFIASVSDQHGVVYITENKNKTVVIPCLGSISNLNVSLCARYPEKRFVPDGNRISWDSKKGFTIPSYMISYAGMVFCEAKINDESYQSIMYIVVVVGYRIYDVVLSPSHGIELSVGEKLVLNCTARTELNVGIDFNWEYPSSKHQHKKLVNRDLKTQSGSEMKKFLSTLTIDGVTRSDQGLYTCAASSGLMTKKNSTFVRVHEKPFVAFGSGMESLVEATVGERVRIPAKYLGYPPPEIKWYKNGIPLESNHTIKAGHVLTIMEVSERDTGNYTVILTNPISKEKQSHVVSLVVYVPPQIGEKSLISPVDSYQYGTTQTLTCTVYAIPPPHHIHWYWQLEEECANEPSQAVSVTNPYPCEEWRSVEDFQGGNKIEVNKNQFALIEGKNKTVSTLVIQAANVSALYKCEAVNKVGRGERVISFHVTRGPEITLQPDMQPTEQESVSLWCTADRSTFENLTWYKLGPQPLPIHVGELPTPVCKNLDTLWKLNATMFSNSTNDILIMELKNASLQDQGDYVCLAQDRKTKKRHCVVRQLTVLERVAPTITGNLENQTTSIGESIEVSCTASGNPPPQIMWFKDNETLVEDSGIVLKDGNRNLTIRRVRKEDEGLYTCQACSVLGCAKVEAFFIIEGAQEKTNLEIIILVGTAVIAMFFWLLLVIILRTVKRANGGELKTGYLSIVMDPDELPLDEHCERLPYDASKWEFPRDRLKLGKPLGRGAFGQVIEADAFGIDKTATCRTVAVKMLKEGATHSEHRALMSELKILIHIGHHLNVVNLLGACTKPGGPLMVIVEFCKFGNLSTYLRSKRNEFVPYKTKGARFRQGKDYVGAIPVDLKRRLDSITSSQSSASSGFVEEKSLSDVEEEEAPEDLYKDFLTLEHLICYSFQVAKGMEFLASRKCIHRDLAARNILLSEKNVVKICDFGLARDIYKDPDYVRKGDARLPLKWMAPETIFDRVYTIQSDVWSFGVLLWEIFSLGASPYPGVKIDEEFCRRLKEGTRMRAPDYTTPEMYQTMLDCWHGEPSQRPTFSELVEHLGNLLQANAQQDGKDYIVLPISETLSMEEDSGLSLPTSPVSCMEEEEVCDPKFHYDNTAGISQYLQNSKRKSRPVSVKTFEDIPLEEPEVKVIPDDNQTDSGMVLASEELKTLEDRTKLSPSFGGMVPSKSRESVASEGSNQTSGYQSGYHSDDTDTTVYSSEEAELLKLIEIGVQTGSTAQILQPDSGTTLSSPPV

For the compound `COc1ccc(-c2cc3c(NC(=O)C4CC4)ncnc3o2)cc1`, the IC50 in assay [1] was 3550 nM; in assay [2], 316 nM; in assay [3] it was more than 20000 nM.

In the case of `O=C(Nc1ncnc2oc(-c3ccc(F)cc3)cc12)C1CC1`, the IC50 in assay [1] was 2040 nM; in assay [2] it was 575 nM; in assay [3], more than 19000 nM.

Regarding `Cc1ccc(-c2cc3c(NC(=O)C4CC4)ncnc3o2)cc1` [GW819230X], the figures for the IC50 in assay [1], in assay [2] and in assay [3] were 630 nM, 617 nM and more than 21000 nM, respectively.

With `COc1ccc(-c2cc3c(NC(=O)C4CCCC4)ncnc3o2)cc1`, the half-inhibitory concentration (IC50) in assay [1] was 1020 nM; in assay [2] it was 30 nM; in assay [3] it was more than 19000 nM.

With `COc1ccc(-c2cc3c(NC(=O)c4cccc(F)c4)ncnc3o2)cc1`, the figures for the 50% inhibitory concentration (IC50) in assay [1], in assay [2] and in assay [3] were 21900 nM, more than 35000 nM and more than 21000 nM, respectively.

In the case of `O=C(Nc1ncnc2oc(-c3cccnc3)cc12)C1CC1`, the values for the 50% inhibitory concentration (IC50) in assay [1], in assay [2] and in assay [3] were 3240 nM, 5 nM and 440 nM, respectively. Further, the EC50 in assay [4] stood at 740 nM.

Take `COc1ccc(-c2cc3c(NC(=O)C4CCCCC4)ncnc3o2)cc1`: the 50% inhibitory concentration (IC50) in assay [1] was more than 48000 nM; in assay [2], 1820 nM; in assay [3] it was more than 20000 nM.

On to `CCCCCC(=O)Nc1ncnc2oc(-c3ccc(OC)cc3)cc12`, for which the IC50 in assay [1] is more than 48000 nM; in assay [2], 437 nM; in assay [3], more than 19000 nM.

Turning to `O=C(Nc1ncnc2oc(-c3ccc(Cl)cc3)cc12)C1CC1`, the 50% inhibitory concentration (IC50) in assay [1] is 2040 nM; in assay [2], 1000 nM; in assay [3] it was more than 20000 nM.

Take `O=C(Nc1ncnc2oc(-c3ccc(F)cc3)cc12)C1CCCC1`: the values for the IC50 in assay [1], in assay [2] and in assay [3] were more than 19000 nM, 219 nM and more than 19000 nM, respectively.

`COc1ccc(-c2cc3c(NC(=O)CC4CCCC4)ncnc3o2)cc1`: the IC50 in assay [1] is more than 48000 nM; in assay [2], 320 nM; in assay [3], more than 19000 nM.

Consider `O=C(Nc1ncnc2oc(-c3ccc(Cl)cc3)cc12)C1CCCC1`, for which the IC50 is more than 20000 nM in assay [1], 550 nM in assay [2] and more than 20000 nM in assay [3].

`COc1ccc(-c2cc3c(NC(=O)CCSC)ncnc3o2)cc1`: the IC50 is more than 47000 nM in assay [1], 537 nM in assay [2] and more than 20000 nM in assay [3].

With `O=C(Nc1ncnc2oc(-c3cccnc3)cc12)C1CCCC1`, the IC50 is more than 24000 nM in assay [1], 5 nM in assay [2] and 450 nM in assay [3]. In assay [4], this compound showed a 50% effective concentration (EC50) of 390 nM.

In turn, `COc1ccc(-c2oc3ncnc(N)c3c2-c2cccnc2)cc1` had an IC50 in assay [2] of 80 nM.

In the case of `O=C(Nc1ncnc2oc(-c3ccccc3)cc12)C1CCCC1`, the half-maximal inhibitory concentration (IC50) is more than 23000 nM in assay [1], 20 nM in assay [2] and more than 19000 nM in assay [3]. The same compound had a concentration giving a half-maximal response (EC50) in assay [4] of more than 10000 nM.

Turning to `Cc1ccc(-c2cc3c(NC(=O)C4CCCC4)ncnc3o2)cc1`, the IC50 in assay [1] was more than 20000 nM; in assay [2], 240 nM; in assay [3], more than 20000 nM.

With `COc1ccc(-c2cc3c(NC(=O)C(C)C)ncnc3o2)cc1`, the IC50 in assay [1] was more than 48000 nM; in assay [2] it was 130 nM; in assay [3] it was more than 21000 nM.

As to `COc1ccc(-c2cc3c(NC(=O)N4CCCC4)ncnc3o2)cc1`, the half-inhibitory concentration (IC50) in assay [1] is 12300 nM; in assay [2], 1950 nM; in assay [3], more than 21000 nM.

For `O=C(Nc1ncnc2oc(-c3ccccc3)cc12)C1CC1`, the figures for the half-inhibitory concentration (IC50) in assay [1], in assay [2] and in assay [3] were 830 nM, 170 nM and more than 21000 nM, respectively.

For `COc1ccc(-c2cc3c(NC(=O)N4CCOCC4)ncnc3o2)cc1`, the values for the IC50 in assay [1], in assay [2] and in assay [3] were more than 48000 nM, more than 34000 nM and more than 20000 nM, respectively.

For `COc1ccc(-c2cc3c(NC(=O)c4ccco4)ncnc3o2)cc1`, the IC50 was more than 48000 nM in assay [1], 2400 nM in assay [2] and more than 20000 nM in assay [3].

For the origin of these results see ChEMBL document CHEMBL1137112, “4-Acylamino-6-arylfuro[2,3-d]pyrimidines: potent and selective glycogen synthase kinase-3 inhibitors” (Bioorg Med Chem Lett, 2004).
